Assay [1] addresses human PDE9A (Homo sapiens, UniProt O76083). The settings on record: concentrations of up to 100 micromolar; cited from earlier work.
Assay [2] concerns the target T1, Murine PDE9A (Mus musculus, UniProt O70628).
T1 sequence (O70628 1-534): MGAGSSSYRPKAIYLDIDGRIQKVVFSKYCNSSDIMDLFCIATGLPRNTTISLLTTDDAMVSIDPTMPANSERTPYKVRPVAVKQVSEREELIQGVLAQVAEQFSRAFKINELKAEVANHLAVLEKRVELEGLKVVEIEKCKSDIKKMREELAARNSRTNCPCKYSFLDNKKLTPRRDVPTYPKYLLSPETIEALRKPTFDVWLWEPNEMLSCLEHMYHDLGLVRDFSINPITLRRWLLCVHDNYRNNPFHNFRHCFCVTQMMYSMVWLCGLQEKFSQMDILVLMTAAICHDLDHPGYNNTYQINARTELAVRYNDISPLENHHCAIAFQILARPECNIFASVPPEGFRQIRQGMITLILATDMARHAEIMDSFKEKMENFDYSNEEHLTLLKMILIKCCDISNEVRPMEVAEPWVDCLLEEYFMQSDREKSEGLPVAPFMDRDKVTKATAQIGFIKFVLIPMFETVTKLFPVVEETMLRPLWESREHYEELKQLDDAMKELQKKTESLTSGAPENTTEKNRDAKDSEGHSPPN
The settings on record: concentrations below 200 micromolar; cited from earlier work.

Assay [3] has as its target T2, human PDE9A2 (Homo sapiens, UniProt O76083).
T2 construct: made in house; host or cells: Sf9 insect cells (infected; crude lysate used as enzyme source)
Put plainly: PDE9A2 enzymatic activity assay (scintillation proximity assay). Format: biochemical. As to conditions: for inhibition at 10 µM: at 10 micromolar concentration, read-out: % inhibition of PDE9A2; for IC50: specific IC50 value lies within the given range, read-out: IC50 within range [nanomolar (nM)]. Here is the method:
The PDE9A2 enzymatic activity assay was run as scintillation proximity assay (SPA), in general according to the protocol of the manufacturer (Amersham Biosciences, product number: TRKQ 7100).
As enzyme source, lysate (PBS with 1% Triton X-100 supplemented with protease inhibitors, cell debris removed by centrifugation at 13.000 rpm for 30 min) of SF 9 cell expressing the human PDE9A2 was used. The total protein amount included in the assay varied upon infection and production efficacy of the SF9 cells and lay in the range of 0.1-100 ng.
In general, the assay conditions were as follows: • total assay volume: 40 microliter • protein amount: 0.1-50 ng • substrate concentration (cGMP): 20 nanomolar; ˜1 mCi/l • incubation time: 60 min at room temperature • final DMSO concentration: 0.2-1%
The assays were run in 384-well format. The test reagents as well as the enzyme and the substrate were diluted in assay buffer. The assay buffer contained 50 mM Tris, 8.3 mM MgCl2, 1.7 mM EGTA, 0.1% BSA, 0.05% Tween 20; the pH of assay buffer was adjusted to 7.5. The reaction was stopped by applying a PDE9 specific inhibitor (e.g. compounds according to WO04099210 or WO04099211) in excess.
The activity of the positive control (minus the negative control=background) is set to 100% and activity in the presence of test compound is expressed relative to these 100%.
A general note: Scintillation proximity formats need no separation of bound from free tracer.

Structures are written as SMILES.

A word on the inhibition: it is the drop in the measured response relative to a control, in per cent. What is called IC50 is the concentration that inhibits the measured activity by half.

Chain of human PDE9A (O76083 whole entry): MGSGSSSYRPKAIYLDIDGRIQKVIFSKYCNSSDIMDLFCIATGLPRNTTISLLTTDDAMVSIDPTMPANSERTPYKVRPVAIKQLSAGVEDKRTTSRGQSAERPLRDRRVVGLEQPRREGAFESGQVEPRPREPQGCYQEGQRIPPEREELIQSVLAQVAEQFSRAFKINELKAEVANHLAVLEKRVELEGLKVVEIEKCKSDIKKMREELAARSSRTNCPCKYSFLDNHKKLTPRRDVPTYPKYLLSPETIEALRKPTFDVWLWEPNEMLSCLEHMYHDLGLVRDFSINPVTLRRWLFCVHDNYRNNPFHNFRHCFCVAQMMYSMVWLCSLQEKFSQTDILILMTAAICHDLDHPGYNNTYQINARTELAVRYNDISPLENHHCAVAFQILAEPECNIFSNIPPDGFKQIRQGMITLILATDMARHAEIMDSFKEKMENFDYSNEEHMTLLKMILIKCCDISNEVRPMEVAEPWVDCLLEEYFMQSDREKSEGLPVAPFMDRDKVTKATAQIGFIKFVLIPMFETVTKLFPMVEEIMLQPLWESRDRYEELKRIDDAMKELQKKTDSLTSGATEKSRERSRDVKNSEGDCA
T2 sequence (O76083 1-533 isoform O76083-2): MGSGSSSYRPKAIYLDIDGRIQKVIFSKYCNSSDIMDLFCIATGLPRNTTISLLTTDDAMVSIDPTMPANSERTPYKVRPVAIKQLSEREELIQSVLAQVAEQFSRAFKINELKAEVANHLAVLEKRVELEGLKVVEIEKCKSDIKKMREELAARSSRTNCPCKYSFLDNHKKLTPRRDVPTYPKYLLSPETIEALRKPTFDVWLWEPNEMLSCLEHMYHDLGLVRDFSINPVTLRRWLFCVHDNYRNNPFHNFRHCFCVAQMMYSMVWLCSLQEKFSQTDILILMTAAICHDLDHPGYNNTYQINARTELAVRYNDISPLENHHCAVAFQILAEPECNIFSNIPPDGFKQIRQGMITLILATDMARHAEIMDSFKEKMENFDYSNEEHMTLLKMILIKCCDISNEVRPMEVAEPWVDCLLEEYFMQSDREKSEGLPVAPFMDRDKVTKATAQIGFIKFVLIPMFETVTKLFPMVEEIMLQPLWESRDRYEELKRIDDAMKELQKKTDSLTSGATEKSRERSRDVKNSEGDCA

In the case of `OCCN(CCO)c1nc(N2CCCCC2)c2nc(N(CCO)CCO)nc(N3CCCCC3)c2n1` [dipyridamole], the “inhibition on the isolated enzyme” value in assay [1] is “no inhibition”.

Consider `COc1ccc(C2CNC(=O)C2)cc1OC1CCCC1` (stereo not drawn) [rolipram], for which the “inhibition on the isolated enzyme” value in assay [1] is given as “no inhibition”.

Regarding `CC(C)Cn1c(=O)n(C)c(=O)c2[nH]cnc21` [IBMX], the “inhibition on the isolated enzyme” value in assay [1] is “no inhibition”. The “inhibition of murine PDE9A” value in assay [2] is on record as “not inhibited”.

Take `CC(=O)Nc1ccc(-c2c[nH]c(=O)cn2)cc1` [SKF94120]: the “inhibition on the isolated enzyme” value in assay [1] is given as “no inhibition”.

In the case of `CCOC(=O)C1=C[C@]2(CC)CCCN3CCc4c(n1c1ccccc41)[C@@H]32` [vinpocetine], the “inhibition on the isolated enzyme” value in assay [1] was “no inhibition”.

Consider `O=C(C1CCCC1c1nc2c(cnn2C2CCCC2)c(=O)[nH]1)N1CCCCC1` (racemic) [Example 26], for which, in assay [3], the inhibition at 10 µM was found to be 99% and the IC50 lay in the range of 1 to 200 nM.

Take `CCOC(=O)[C@H]1C[C@H]1c1nc2c(cnn2C(CC)CC)c(=O)[nH]1` (stereo in doubt) [Example 43]: in assay [3], the IC50 lay within 201 to 5000 nM.

For the molecule `COC(=O)C1CCCC(c2nc3c(cnn3-c3ccccc3C)c(=O)[nH]2)C1` (mixture of isomers) [Example 38], the IC50 in assay [3] fell in the range of 1 to 200 nM.

For `O=C([C@H]1CC[C@@H]1c1nc2c(cnn2C2CCC(F)(F)CC2)c(=O)[nH]1)N1CCC(C(F)(F)F)CC1` (racemic) [Example 6], in assay [3], the inhibition at 10 µM was determined as 101% and the IC50 lay in the range of 1 to 200 nM.

`O=c1[nH]c(C2CCC2)nc2c1cnn2C1CCC(F)(F)CC1` [Example 30]: in assay [3], the inhibition at 10 µM was 96% and the half-inhibitory concentration (IC50) was in the range of 1 to 200 nM.

With `Cc1noc(C2CCC2c2nc3c(cnn3C3CCC(F)(F)CC3)c(=O)[nH]2)n1` (racemic) [Example 32], in assay [3], the inhibition at 10 µM is 91% and the IC50 lay in the range of 1 to 200 nM.

With `CC1CCN(C(=O)[C@H]2CC[C@@H]2c2nc3c(cnn3C3CCC(F)(F)CC3)c(=O)[nH]2)CC1` (racemic) [Example 15], in assay [3], the inhibition at 10 µM turned out to be 101% and the concentration for half-maximal inhibition (IC50) lay within 1 to 200 nM.

As to `O=C([C@H]1CC[C@@H]1c1nc2c(cnn2C2CCC(F)(F)CC2)c(=O)[nH]1)N1CC[C@@H](F)C1` (racemic) [Example 2], in assay [3], the inhibition at 10 µM stood at 100% and the IC50 lay in the range of 1 to 200 nM.

With `CO[C@@H]1CCN(C(=O)[C@H]2CC[C@@H]2c2nc3c(cnn3C3CCC(F)(F)CC3)c(=O)[nH]2)C1` (racemic) [Example 7], in assay [3], the inhibition at 10 µM is 102% and the IC50 was in the range of 1 to 200 nM.

In the case of `O=C([C@H]1CCC[C@@H]1c1nc2c(cnn2C2CCC(F)(F)CC2)c(=O)[nH]1)N1CCC(F)(F)CC1` (racemic) [Example 19], in assay [3], the inhibition at 10 µM came to 92% and the IC50 lay in the range of 1 to 200 nM.
